Measurements as given in patent publication US6603023B2 (priority 1996, dated 2003).
Where “and” joins values, the source holds several entries; their conditions need not be identical. Equal entries are not always repeated. Structures can show the parent of a compound that is named as a salt. Where two headings read alike, the source gives them in different places.

How the values were obtained:
[1] = system: MCF-7; assay: SRB cytotoxicity, MCF-7; assay type: cell-based, human; details: Homo sapiens, MCF7, 72 h
Experimental: (§1) The cytotoxicity of the drug toward the monolayer cell cultures (such as DC-3F, MCF-7, SK-N-As and sublines) was determined in 96-well microtiter plates by the SRB method as described by Skehan and co-workers (Skehan, P., et al., J. Natl. Cancer Inst. 1990, 82, 1107-1112) for measuring the cellular protein content. Cultures were fixed with trichloroacetic acid and then stained for 30 min with 0.4% suforhodamine B dissolved in 1% acetic acid. Unbound dye was removed by acetic acid washes, and the protein-bound dye was extracted with an unbuffered Tris base (tris(hydroxy-methyl)aminomethane) for determination of absorbance at 570 nm in a 96-well microtiter plate reader. The experiments were carried out in duplicate. Each run entailed six to seven concentrations of the tested drugs. Data were analyzed with the median-effect plot (Chou, T.-C. & Talalay, P. T. (1984) Adv. Enzyme Regul. 22, 27-55) using a previously described computer program (Chou, J., & Chou T.-C. 1987, Dose-effect analysis with microcomputers: Quantitation of ED50, synergism, antagonism, low-dose risk, reception-ligand binding and enzyme kinetics, IBM-PC software and manual, Biosoft, Cambridge, U.K.).

[2] = system: human neuroblastoma SK-N-As; assay: SRB cytotoxicity, SK-N-As; assay type: cell-based; details: Homo sapiens, SK-N-AS, 72 h
Experimental: (§2) The DC-3F hamster lung fibroblast cell line and its actinomycin D-selected sublines (DC-3F/ADII and DC-3F/ADX) were obtained from the Memorial Sloan-Kettering Cancer Center (MSKCC).
(§3) The drug-resistant cell lines were continuously cultured in the presence of the selecting agent, AD, DX, VBL or VM to maintain the drug resistant phenotypes. […] All cells were cultured in RPMI 1640-10% FBS at 37° C. 5% CO2 (see below).
as §1

[3] = system: DC-3F/ADX; assay: cells; assay type: cell-based, hamster; details: DC3F/ADX, 72 h, Table 1C; SRB
Experimental: as §2, §3, §1
Concerning Table 3, experiments were carried out using the cell lines DC-3F (parent hamster lung cells), DC-3F/ADII (moderate multidrug-resistant (MDR) cells) and DC-3F/ADX (very strong MDR cells).

[4] = system: DC-3F hamster lung fibroblast cell line; assay: SRB cytotoxicity, DC-3F; assay type: cell-based; details: Mesocricetus auratus, DC3F, 72 h, Table 1C; SRB
Experimental: as §2, §3, §1

[5] = system: murine leukemic P388/0; assay: XTT cytotoxicity, P388/0; assay type: cell-based; details: Mus musculus, P388, 72 h
Experimental: as §2, §3
(§4) The cells were cultured at an initial density of 5×10^4 cells/mL. They were maintained in a 5% CO2-humidified atmosphere at 37° C. in RPMI-1640 medium (GIBCO-BRL, Gaithersburg, Md.) containing penicillin (100 U/mL), streptomycin ([…]) (GIBCO-BRL) and 10% heat inactivate fetal bovine serum. Culture for cell suspension (such as for CCRF-CEM, P388 and sublines), were performed by the XTT-microculture tetrazonium method (Scudiero, D. A. et al., Cancer Res. 1988, 48, 4827-4833) in duplicate in 96-well microtiter plates.
(§5) 2′,3′-Bis(methoxy-4-nitro-5-sufophenyl)-5-[(phenylamino)carbonyl]2H-tetrazolium hyudroxide (XTT) was prepared at 1 mg/mL in prewarmed (37° C.) medium without serum. Phenazine methosulfate (PMS) and fresh XTT were mixed together to obtain 0.025 mM PMS-XTT solution (25 μL of the stock 5 mM PMS was added per 5 mL of 1 mg/mL XTT). Following a 72 h incubation, 50 μL of the assay aliquots were added to each well of the cell culture. After incubation at 37° C. for 4 h, absorbance at 450 nm and 630 nm was measured with a microplate reader (EL340, Bio-Tek Instruments, Inc., Winooski, Vt.).

[6] = system: CCRF-CEM human T-cell acute lymphoblastic leukemia cell line; assay: XTT cytotoxicity (cell growth inhibition), CCRF-CEM; details: Homo sapiens, CCRF-CEM, 72 h, Table 1A; XTT
Method in brief: (§6)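 Suspension leukemic cells (CCRF-CEM, P388 and drug-resistant sublines kept under the selecting agent) were seeded at 5×10^4 cells/mL in RPMI-1640 with 10% FBS at 37 °C. After 72 h drug exposure in duplicate, PMS-XTT was added for 4 h. Absorbance was read at 450 and 630 nm.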

[7] = system: SK-N-FI; assay: cells; assay type: cell-based, human; details: Homo sapiens, SK-N-FI, 72 h
Experimental: as §3, §1

[8] = system: MCF-7/Adr; assay: cells; assay type: cell-based, human; details: Homo sapiens, NCI/ADR-RES, 72 h
Experimental: Cultures were fixed with trichloroacetic acid and then stained for 30 min with 0.4% suforhodamine B dissolved in 1% acetic acid. Unbound dye was removed by acetic acid washes, and the protein-bound dye was extracted with an unbuffered Tris base (tris(hydroxy-methyl)aminomethane) for determination of absorbance at 570 nm in a 96-well microtiter plate reader. The experiments were carried out in duplicate. Each run entailed six to seven concentrations of the tested drugs.

[9] = system: human mammary carcinoma MX-1 xenograft
Experimental: (§7) DMSO was used as a vehicle for epothilones. Each mouse received ≦40 μL DMSO in all experiments.
(§8) Athymic nude mice (nu/nu) were used for MX-1 and MCF-7/Adr human mammary carcinoma xenografts. Mice were obtained from Taconic Laboratory Animals and Service (Germantown, N.Y.: outbred, Swiss background).

[10] = system: CCRF-CEM/Taxol®; assay: cells; assay type: cell-based, human; details: Homo sapiens, CCRF-CEM, 72 h
Method in brief: as §6

[11] = system: CCRF-CEM/VBL100; assay: cells; assay type: cell-based, human; details: Homo sapiens, CCRF-CEM, 72 h, Table 1A; XTT
Method in brief: as §6

[12] = system: CCRF-CEM/VM1; assay: cells; assay type: cell-based, human; details: Homo sapiens, CCRF-CEM, 72 h, Table 1A; XTT
Method in brief: as §6

[13] = in vivo; details: male, athymic nude (nu/nu), outbred, Swiss background, mouse, in vivo, ip
Experimental: as §7, §8

[14] = system: MDR human mammary adenocarcinoma MCF-7/Adr xenograft; assay: in vivo
Experimental: as §7, §8

[15] = system: P388/Adr; assay: cells; assay type: cell-based, murine; details: Mus musculus, P388/ADR, 72 h
Experimental: as §3, §4, §5

[16] = male, athymic nude (nu/nu), outbred, Swiss background, mouse, in vivo
[17] = high doses: Taxol 12, Adriamycin 3, Camptothecin 3.0 mg/kg i.p. day 8,10,12,14,16

## COc1cccc2c1C(=O)c1c(O)c3c(c(O)c1C2=O)C[C@@](O)(C(=O)CO)C[C@@H]3O[C@H]1C[C@H](N)[C@H](O)[C@H](C)O1 [Adriamycin, doxorubicin or adriamycin HCl]
[1]
  IC50: 57 nM
[2]
  IC50: 77 nM
[3]
  IC50: 2240 nM
[4]
  IC50: 18 nM
[5]
  IC50: 5.5 nM
[6]
  IC50: 36 nM
[7]
  IC50: 1420 nM
[8]
  IC50: 216 nM
[9]; 2 mg/kg i.p. d8,10,12,14,16
  Tumor Disappearance: 1/10
[9]; 3 mg/kg i.p. d8,10,12,14,16
  Tumor Disappearance: 4/6
[9]; adriamycin 2 mg/kg i.p. Q2Dx5 from day 8
  tumor volume reduction: 28%
[9]; [16]
  lethality: 4/6
  lethality (mice died of toxicity): 1/10
[10]
  IC50: 82 nM
[11]
  IC50: 1740 nM
[12]
  IC50: 128 nM
[13]
  LD50: 3 mg/kg
[14]; DX 2 mg/kg
  tumor growth suppression: slight growth suppression
[14]; [17]
  Average Tumor Volume (T/C), Day 11: 0.66 T/C
  Average Tumor Volume (T/C), Day 13: 0.83 T/C
  Average Tumor Volume (T/C), Day 15: 0.57 T/C
  Average Tumor Volume (T/C), Day 17: 0.53 T/C
[14]; [16]
  lethality: 3/6
[14]; mouse, in vivo
  tumor size reduction: 22%
[14]; mouse, in vivo, HCl
  Average Tumor Size (T/C): 0.78 and 0.70 and 0.68 and 0.84 and 0.53 and 0.66 and 0.83 and 0.57
[15]
  IC50: 2650 nM
